From publication PMC9945734 (BMC Medicine, 2023)

Columns and labels:
[1] = system: osteoclasts in mouse femurs; test: TRAP staining of bone tissue sections; type: in vivo, Balb/c nude mice; details: compared to the vehicle group
Description: The procedure for TRAP staining in tissues was described in our previous study. Briefly, deparaffinized and hydrated bone sections were incubated in 0.2 M acetic acid for 20 min and then in 0.2 M acetic acid containing the fast red TR salt (1.1 mg/mL) and naphthol AS-MX phosphate (0.5 mg/mL) for about 45 min at 37°C. When TRAP-positive cells turn red, as monitored using microscopy, slides were counterstained with hematoxylin and mounted with coverslips using glycerin. Slides were then scanned and analyzed as described above.

RAW264.7 cells = test: RANKL-induced osteoclast differentiation, TRAP staining; type: cell-based; details: RANKL 50 ng/mL
Description: Three different culture systems were used for the in vitro osteoclast differentiation assay. In the first one, RAW264.7 cells were seeded onto 96-well plates at 1 × 10^3 cells/well and cultured overnight. Cells were then stimulated with recombinant mouse RANKL (Cat #: CR06, Novoprotein, Shanghai, China) at 50 ng/mL in the presence or absence of various concentrations of NTZ (0, 6.25, 12.5, 25 μM). […] Cells were then fixed in 4% paraformaldehyde for 10 min, rinsed with prewarmed deionized water, and stained with tartrate-resistant acid phosphatase (TRAP) using a kit from Sigma-Aldrich (Cat #: A387) to visualize osteoclasts (≥ 3 nuclei/cell). The effect of NTZ on osteoclast differentiation was determined by counting the number of multinucleated cells using the Image J software (Image J 1.48v).

CC(=O)Oc1ccccc1C(=O)Nc1ncc([N+](=O)[O-])s1 [Nitazoxanide]
number of TRAP^+ cells in mouse femurs [1]: significantly reduced the number of TRAP^+ cells
number of TRAP^+ multinucleated cells (RAW264.7 cells; 6.25 and 12.5 μM): significantly decreased
number of TRAP^+ multinucleated cells (RAW264.7 cells; NTZ 0, 6.25, 12.5, 25 μM): decreased the number of TRAP^+ multinucleated cells in a dose-dependent manner
